Measurements: US20220195533A1, “ARYL HYDROCARBON RECEPTOR (AHR) ACTIVATION SIGNATURE AND METHODS FOR DETERMINING AHR SIGNALING STATUS” (DEUTSCHES KREBSFORSCHUNGSZENTRUM STIFTUNG DES OFFENTLICHEN …, priority 2019, published 2022)

Test system: AHR
Assay: AHR signature gene set testing in tumor tissue of advanced melanoma patients after immune checkpoint inhibition
Format: in vivo, human
Conditions: tumor tissue of advanced melanoma patients after treatment (GSE91061), FIG. 31C
Text: The eBayes adjusted moderated t-statistic was applied for differential gene expression using limma (Ritchie, M E, et al. (2015). limma powers differential expression analyses for RNA-sequencing and microarray studies. Nucleic Acids Research 43(7), e47) and limma-trend (Phipson, B, et al. (2016). Robust hyperparameter estimation protects against hypervariable genes and improves power to detect differential expression. Annals of Applied Statistics 10(2), 946-963) or the limma RNA-seq pipeline (Ritchie, M E, et al. (2015). limma powers differential expression analyses for RNA-sequencing and microarray studies. Nucleic Acids Research 43(7), e47). Batch effects, when present, were accounted for in the linear regression. Gene set testing of AHR activation was performed using roast (Wu, D., et al. (2010). ROAST: rotation gene set tests for complex microarray experiments. Bioinformatics 26, 2176-2182).
Using an AHR signature comprising of all the biomarkers in Table 1, allows the detection of AHR modulation caused by both direct and indirect AHR modulators in a cell type and ligand type independent fashion.

“Nivolumab: immune checkpoint inhibition; indirect modulation of AHR through immunotherapy” was tested, and the “modulation of AHR detected with AHR signature of all Table 1 biomarkers” value was “indirect modulation of AHR”.
